{"source": "patent US20230332103A1", "about": "“Methods and Compositions for Generating Human Forebrain Neural Progenitor Cells and for Maturation Thereof to Parvalbumin+ Interneurons” (Trailhead Biosystems Inc., priority 2021, published 2023)", "key": {"[1]": {"tested_on": "stage 2 neural stem cells (cells treated with stage 1 and stage 2 media)", "assay": "HD-DoE experiment for stage 3 recipe, optimized for ASCL1", "assay_type": "cell-based, human", "details": "for factor contribution on expression of ASCL1: positive, model optimized for maximum expression of ASCL1 at 1700, FIG. 9", "procedure": "To further guide the cells to medial ganglionic eminence progenitor fate, an additional HD-DoE experiment was performed for 3 days on cells that were treated with stage 1 and stage 2 media for total of 6 days prior to start of the experiment. This experiment included 13 effectors, LDN193189, A8301, GNF5837, AZD3147, GSI-XX, Takinib, PD0325901, PD173074, BLU9931, IGF-1, MHY1485, Purmorphamine and Prostratin. In this model, we focused on maximum expression of genes expressed in neuronal progenitor cells in medial ganglionic eminence (MGE) region including ASCL1, LHX6 and DLX1 (Silberberg et al. (2016) Neuron 92:59-74). When the model was optimized for maximum expression of ASCL1 at 1700, A8301, GSI-XX, Purmorphamine and Takinib, which is an inhibitor of TAK1 pathway, had the highest factor contributions, 18.1, 14.1, 12.7 and 10.1 respectively. […]"}, "[2]": {"tested_on": "stage 2 neural stem cells", "assay": "factor criticality analysis (dynamic profile analysis) of stage 3 recipe", "assay_type": "cell-based, human", "parameters": "unit not given here", "details": "other five factors present; for expression level of DLX1 when the effector is removed: 220 with all six factors; for expression level of LHX6 when the effector is removed: 240 with all six factors; for expression level of ASCL1 when the effector is removed: 1650 with all six factors", "procedure": "To assess the impact of the elimination of each validated factor, dynamic profile analysis was used and compared the expression level of genes of interest in absence of each finalized factor while others are present. […] In the stage 3 recipe, each of the six finalized factors were removed while the other five factors remained present and the expression levels of ASCL1, DLX1 and LHX6 were assessed compared to the presence of all six factors. […] As expected, in the absence of IGF-1, the value of DLX1 increases to 410, however, ASCL1 and LHX6 decreased to 1390 and 220, respectively."}, "[3]": {"tested_on": "human pluripotent stem cells", "assay": "additional HD-DoE experiment for stage 1 (forebrain differentiation from pluripotency), optimized for FEZF2", "assay_type": "cell-based", "details": "dynamic profile, FIG. 6", "procedure": "To identify the recipe for stage 1 of differentiation, 96 different combinations of effectors generated using Design-of-Experiments compression through D-optimality were robotically prepared. The effector combinations were prepared in a basal media and were subsequently added to the cells, which were then allowed to differentiate. Three days later RNA extraction was performed, and gene expression was obtained using quantitative PCR analysis. The data were normalized and modeled using partial least squares regression analysis to the effector design, resulting in the generation of gene-specific models, which after model tuning for maximal Q2 predictive power, provided explanation of the effectors ability to control the expression of individual genes, combinatorially, and individually. Solutions within the tested space could then be explored to address desirability.\nTo further enhance the conditions for forebrain differentiation from pluripotency, an additional HD-DoE experiment was performed. Additional gene regulatory models were obtained that were used for preparation of the differentiation protocol. The factors in this experiment included LDN193189, PD173074, BLU9931, Purmorphamine, SC79, MK2206, ZM336372, PD0325901, CHIR99021, XAV939, UCLA-GP130, Tofacitinib and GO6983. […] Dynamic profile analysis was also used to assess the interaction between the effectors."}, "[4]": {"tested_on": "forebrain-committed neural stem cells (stage 1 neural stem cells)", "assay": "HD-DoE 12-factor experiment for stage 2 recipe, optimized for NKX2-1", "assay_type": "cell-based, human", "details": "for impact on expression of NKX2-1: model maximized for NKX2-1 / dynamic profile, FIG. 7 and 8", "procedure": "To further guide the differentiation of forebrain-committed neural stem cells to ventral forebrain neural stem cells at stage 2, a HD-DoE experiment was performed for 3 days after termination of stage 1 treatment. At this time, we focused on maximum expression of NKX2-1 that is expressed in ventral forebrain region and minimum expression of PAX6 that is expressed in dorsal forebrain region. This 12-factor experiment included LDN193189, BMP7, PD0325901, MK2206, A8301, XAV939, CHIR99021, Purmorphamine, SANT-1, AGN193109, TTNPB and GSI-XX."}, "MGE progenitor cells": {"tested_on": "MGE progenitor cells", "assay": "HD-DoE 12-factor experiment for stage 4 recipe, optimized for MEF2C", "assay_type": "cell-based, human", "from_the_text": "These effectors are small molecules or proteins. They are commonly used during stepwise differentiation of stem cells to specific fates. The choice of the effectors was based on current literature on neural induction in forebrain region of developing brain and differentiation of stem cells to neural progenitors.\nTo evaluate the effectors, experiments with at least 8 factors were designed that can assess the response of cells to 48 or more different combinations of effectors in a range of concentrations. To analyze the models, we focused on expression of genes involved in development and patterning of the forebrain interneurons maturation including LHX6 (Yuan et al. (2018) Elife, 7:e37382), DLX5 (Wang et al. (2010) J. Neuroscience 30:5334-5345), ASCL1 (Shi et al. (2016) J. Biol. Chem. 291:13560-13570). At later stages we focused on interneuron maturation genes including Parvalbumin and absence of somatostatin (Horn and Nicoll (2018) Proc. Natl. Acad. Sci. 115:589-594). The impacts of each effector on gene expression level are defined by a parameter called factor contribution that is calculated for each effector during the modeling.\nTo identify the recipe of stage 4 of differentiation, 48 different combinations of effectors generated using Design-of-Experiments compression through D-optimality were robotically prepared. The effector combinations were prepared in a basal media and were subsequently added to the cells, which were then allowed to differentiate. Three days later RNA extraction was performed, and gene expression was obtained using quantitative PCR analysis. The data was normalized and modeled using partial least squares regression analysis to the effector design, resulting in the generation of gene-specific models, which after model tuning for maximal predictive power, provided explanation of the effectors ability to control the expression of individual genes, combinatorically, and individually. Solutions within the tested space could then be explored to address desirability. […] Valproic Acid can inhibit histone deaceylases and increase γ-aminobutyric acid (GABA). […] GDNF is the […] Glial cell line-derived neurotrophic factor and can activate the GDNF pathway.\nTo find the set of factors that have the potential to optimize MEF2C in this experiment, a new assessment was done through dynamic profile analysis with focus on maximal expression of MEF2C (FIG. 20)."}, "[5]": {"tested_on": "human pluripotent stem cells", "assay": "HD-DoE 12-factor experiment for stage 1 recipe, gene expression by quantitative PCR after 3 days", "assay_type": "cell-based", "from_the_text": "This example utilizes a method of High-Dimensional Design of Experiments (HD-DoE), as previously described in Bukys et al. (2020) […] 23:101346. The method employs computerized design geometries to simultaneously test multiple process inputs and offers mathematical modeling of a deep effector/response space. The method allows for finding combinatorial signaling inputs that control a complex process, such as during cell differentiation. It allows testing of multiple plausible critical process parameters, as such parameters impact output responses, such as gene expression. Because gene expression provides hallmark features of the phenotype of, for example, a human cell, the method can be applied to identify, and understand, which signaling pathways control cell fate. In the current example, the HD-DOE method was applied with the intent to find conditions for induction of […] neural progenitor-expressed genes, directly from the pluripotent stem cell state. To develop the recipe for each stage, the impact of agonists and antagonists of multiple signaling pathways (herein called effectors) on the expression of two sets of 53 pre-selected genes, after a 3-day treatment, has been tested and modeled. These effectors are small molecules or proteins that are commonly used during stepwise differentiation of stem cells to specific fates. Choice of the effectors were based on current literature on neural induction in forebrain region of developing brain and differentiation of stem cells to neural progenitors. To test the effectors, experiments with at least 8 factors were designed that can assess the response of cells to 48 or more different combinations of effectors in a range of concentrations. To analyze the models, we focused on expression of genes involved in development and patterning of the anterior neuroectoderm and forebrain including OTX2 (Hoch et al. (2015) Cell Reports 12:482-494), SIX3 (Lagutin et al. (2003) Genes & Development 17:368-379) and FEZF2 (Zhang et al. (2014) Development 141:4794-[…]). At later stages we focused on dorsoventral patterning of telencephalon and gene expressed in ventral forebrain including NKX2-1 and absence of PAX6 which is a dorsal forebrain marker (Stoykova et al. (2000) J. Neurosci. 20:8042-8050). The impact of each effector on gene expression level is defined by a parameter called factor contribution that is calculated for each effector during the modeling. To identify the recipe for stage 1 of differentiation, 96 different combinations of effectors generated using Design-of-Experiments compression through D-optimality were robotically prepared. The effector combinations were prepared in a basal media and were subsequently added to the cells, which were then allowed to differentiate. Three days later RNA extraction was performed, and gene expression was obtained using quantitative PCR analysis. […] Solutions within the tested space could then be explored to address desirability. Optimizing for maximal expression of SIX3 at 3300 and FEZF2 1355 expression values led to robust solutions. This model was derived from testing 12 effectors including AGN193109, LDN193189, CHIR99021, XAV939, IGF2, Purmorphamine, 4-oxo-RA, TTNPB, SR11237, FGF8, PD0325901 and […]. […] The model was also optimized for maximum expression of FEZF2 separately at 3576 expression value to find any additional factors that can boost expression of forebrain genes. […] To find the set of factors that have the potential to optimize all 3 genes in this experiment, a new assessment was done through dynamic profile analysis with focus on maximal expression of OTX2, FEZF2 and SIX3."}, "[6]": {"details": "dynamic profile analysis, FIG. 10"}, "[7]": {"details": "dynamic profile analysis, FIG. 4"}}, "note": "Values joined by “and” are separate entries in the source; they are usually repeats but may differ in a detail not shown here. Identical values can stand only once. “Also recorded” adds a separate entry of the source."}
{"smiles": "Cc1cccc(-c2nn(C(=S)Nc3ccccc3)cc2-c2ccnc3ccccc23)n1", "note": "[A8301]", "values": [{"measurement": "impact on expression of ASCL1", "setting": "[1]; [6]", "result": "positive trends; also recorded: Positive impact"}, {"measurement": "impact on expression of DLX1", "setting": "[1]; [6]", "result": "did not have a significant negative impact"}, {"measurement": "impact on expression of LHX6", "setting": "[1]; [6]", "result": "positive trends; also recorded: Positive impact"}, {"measurement": "factor contribution on expression of ASCL1", "setting": "[1]", "result": "18.1 and 18"}, {"measurement": "expression level of DLX1 when the effector is removed", "setting": "[2]", "result": "did not change significantly"}, {"measurement": "expression level of LHX6 when the effector is removed", "setting": "[2]", "result": "did not change significantly"}, {"measurement": "expression level of ASCL1 when the effector is removed", "setting": "[2]", "result": 1000}]}
{"smiles": "Cc1ccc(NC(=O)Nc2cc(C(F)(F)F)ccc2F)cc1Nc1ccc2c(c1)NC(=O)/C2=C\\c1ccc[nH]1", "note": "[GNF5837]", "values": [{"measurement": "factor contribution on expression of ASCL1", "setting": "[1]", "result": 9.4}, {"measurement": "expression level of DLX1 when the effector is removed", "setting": "[2]", "result": "did not have a significant impact"}, {"measurement": "expression level of LHX6 when the effector is removed", "setting": "[2]", "result": 160}, {"measurement": "expression level of ASCL1 when the effector is removed", "setting": "[2]", "result": 1300}]}
{"smiles": "COc1ccc2c(c1)c(C1=C(c3c[nH]c4ccccc34)C(=O)NC1=O)cn2CCCN(C)C", "note": "[GO6983]", "values": [{"measurement": "impact on expression of FEZF2", "setting": "[3]", "result": "positive impact"}]}
{"smiles": "NC1(c2ccc(-c3nc4ccn5c(=O)[nH]nc5c4cc3-c3ccccc3)cc2)CCC1", "note": "[MK2206]", "values": [{"measurement": "impact on expression of NKX2-1", "setting": "[4]", "result": "increase its expression level"}, {"measurement": "impact on expression of FEZF2", "setting": "[3]", "result": "positive impact"}]}
{"smiles": "Cc1nn(-c2ccccc2)c(C)c1/C=N/N1CCN(Cc2ccccc2)CC1", "note": "[SANT-1]", "values": [{"measurement": "impact on expression of NKX2-1", "setting": "[4]", "result": "negative impact"}, {"measurement": "factor contribution on expression of NKX2-1", "setting": "[4]; negative role, model optimized for maximum expression of NKX2-1, FIG. 7", "result": 26.3}]}
{"smiles": "NC(=O)c1ccc(-c2nc(-c3ccc4c(c3)OCO4)c(-c3ccccn3)[nH]2)cc1", "note": "[SB431542]", "values": [{"measurement": "impact on expression of MEF2C", "setting": "MGE progenitor cells; dynamic profile analysis, FIG. 20", "result": "negative effect"}, {"measurement": "factor contribution on expression of MEF2C", "setting": "MGE progenitor cells; significant negative effect, model optimized for maximal expression of MEF2C", "result": 7.9}]}
{"smiles": "C/C(=C\\c1ccc(C(=O)O)cc1)c1ccc2c(c1)C(C)(C)CCC2(C)C", "note": "[TTNPB]", "values": [{"measurement": "impact on expression of NKX2-1", "setting": "[4]", "result": "negative impact"}, {"measurement": "factor contribution, important input for high expression of SIX3", "setting": "[5]; FIG. 2 legend, model optimized for maximum expression of SIX3 as printed", "result": 23.7}, {"measurement": "impact on expression of OTX2", "setting": "[5]; [7]", "result": "negative impact"}, {"measurement": "impact on expression of SIX3", "setting": "[5]; [7]", "result": "negative impact"}, {"measurement": "factor contribution on expression of FEZF2", "setting": "[5]; positive impact, model optimized for maximum expression of FEZF2", "result": 24}, {"measurement": "factor contribution on expression of SIX3", "setting": "[5]; significant negative effect, model optimized for maximal expression of SIX3", "result": 21}, {"measurement": "factor contribution on expression of OTX2", "setting": "[5]; significant negative impact, model of maximum expression of OTX2", "result": "29 and 28.8"}]}
{"smiles": "CCCn1/c(=N/C(=O)c2cccc(C(N)=O)c2)[nH]c2ccccc21", "note": "[Takinib]", "values": [{"measurement": "factor contribution on expression of ASCL1", "setting": "[1]", "result": 10.1}, {"measurement": "expression level of DLX1 when the effector is removed", "setting": "[2]", "result": 180}, {"measurement": "expression level of LHX6 when the effector is removed", "setting": "[2]", "result": 170}]}
